System: control cell line without sweet receptor (HEKα15#17)
Assay: Control cell line without sweet receptor in the same calcium cell based assay
Procedure: For measurement of human T1R2/T1R3 taste receptor dependent activity a control cell line without sweet receptor based on HEK 293 and a cell line expressing the sweet receptor hT1R2/hT1R3 based on HEK 293, respectively, are seeded into assay plates and labelled with the calcium sensitive fluorescence dye Fluo4-AM in a culture medium. The potential modulators, e.g. the test compound, are added to the control cell line and to the cell line expressing the sweet receptor hT1R2/hT1R3, respectively.
A stable cell line based on HEK293 was termed HEKα15#17 served as control for functional Ga-protein and a stable cell line HEKGα15#17R2R3b#8 C6 served as cell line expressing the sweet receptor hT1R2/hT1R3 based on HEKGα15#17.
The cells were cultured in DMEM/HG and 10% FCS Gold, 4 mM L-Glutamin, 1,3 mg/ml Geneticin (HEKGα15#17) or the same medium additionally containing 6 μg/ml Blasticidin (HEKGα15#17R2R3b#8 C6). The medium for the assay was DMEM/HG (high glucose, 4.5 g/l glucose, Life Technologies) and 10% FCS Gold, 4 mM L-Glutamin (HEKGα15#17) or DMEM/LG (low glucose, 1 g/l glucose; Life Technologies) and 10% FCS Gold (HEKGα15#17R2R3b#8C6), respectively.
In order to evaluate the sweet receptor modulating activity of the compound of formula (Ia), compound of formula (Ia) was added to the cultures in a concentration of 25 μM in a volume of 50 μl. Controls were KH-buffer (Krebs HEPES-buffer: 118 mM NaCl, 4.7 mM KCl, 1.2 mM MgSO4, 1.2 mM KH2PO4, 4.2 mM NaHCO3, 1.3 mM CaCl2, 10 mM Hepes, pH 7.4) either without or with sweetness enhancer.
Further controls for function of G-protein and receptor were isoproterenol (1 μM, Sigma Aldrich), ionomycin (1 μM, Calbiochem) and ATP (1 μM, Applichem).
For measurement of human T1R2/T1R3 taste receptor dependent activity, on day 1 of the test procedure the HEKα15#17 cells (control cell line without sweet receptor) and the HEKGα15#17R2R3b#8 C6 cells (cell line expressing the sweet receptor hT1R2/hT1R3), respectively, were transferred to low-glucose medium.
On day 2 the cells were seeded into assay plates at a density of 25,000 cells/well. Assay plates for fluorescence measurement (black clear bottom 96-cavity plates, Greiner Bio-One) were coated with poly-D-lysine. For direct comparison both cell lines (control cell line without sweet receptor and cell line expressing the sweet receptor hT1R2/hT1R3) were seeded into different cavities of the same assay plate. The plate was placed into the incubator for 48 hours at 37° C., 5% CO2, 100% relative humidity.
On day 4 the calcium assay was performed. For this assay, the cells were marked with Fluo4-AM in medium and KH-buffer. To each cavity 100 μl KH-buffer/250 μM sulfinpyrazone/4 μM Fluo4-AM were added gently to 100 μl medium (final concentration of Fluo4-AM=2 μM, stock solution of Fluo4-AM 1 mM in DMSO, excitation at 485 nm, emission at 520 nm, Fisher Scientific, 58239 Schwerte, Germany).
The plate was placed into the incubator for 1 hour. In the mean time the test substances (“ligands”) were prepared in a separate plate (5 times concentrated, 150 μl/cavity, and then automatically 50 μl/cavity were transferred into the screening cell plate by pipetting robot (FLEX-station, Molecular Devices, Sunnyvale, Calif.).
The culture medium was carefully removed and 200 μl KH-buffer/250 μM sulfinpyrazone per cavity was added slowly. Cells were left in the FLEX-station for 20 minutes for adaptation, followed by measurement at 37° C.

[1] = control compounds 1 μM, FIG. 1 second to fourth bars

Row | Structure (SMILES) | Fluo4-AM fluorescence increase (activation of control cell line) [1] | other results
1 | CC(C)NCC(O)c1ccc(O)c(O)c1 (centres unmarked) [isoproterenol] | activate both the control and the cell line expressing the sweet receptor hT1R2/hT1R3 | –
2 | C[C@H](CCC(=O)O)C[C@H](C)C[C@H](C)C(=O)/C=C(\O)[C@H](C)C[C@H](C)C/C=C/[C@@H](C)[C@@H](O)[C@@H](C)[C@@H](O)C[C@@H]1CC[C@@](C)([C@H]2CC[C@@](C)([C@@H](C)O)O2)O1 [ionomycin] | activate both the control and the cell line expressing the sweet receptor hT1R2/hT1R3 | –
3 | O=S(=O)([O-])NC1CCCCC1.[Na+] [sodium cyclamate] | – | Fluo4-AM fluorescence increase (activation of control cell line) (sodium cyclamate 30 mM, control sweetener, FIG. 1 first bar): does not activate the control cell line
4 | O=C(CO)[C@@H](O)[C@H](O)[C@H](O)CO [fructose] | – | Fluo4-AM fluorescence increase (activation of control cell line) (KH buffer/fructose (20 mM), FIG. 1 fifth bar): does neither activate the control cell line
5 | Nc1ncnc2c1ncn2[C@@H]1O[C@H](COP(=O)(O)OP(=O)(O)OP(=O)(O)O)[C@@H](O)[C@H]1O [ATP] | activate both the control and the cell line expressing the sweet receptor hT1R2/hT1R3 | –

From US20140010939A1, “Sweetness Enhancers, Sweetener Compositions, Methods of Making the Same and Consumables Containing the Same” (Nutrinova Nutrition Specialties & Food Ingredients GmbH, priority 2011, published 2014)
